From EP0102404A1, “Novel polycyclic fused pyrazole compounds useful as antiinflammatory agents and preparation thereof” (STERLING DRUG INC., priority 1982, dated 1984) come the findings set out here.

In general, ED50 refers to the dose at which the effect has come halfway, by size or by number of responders. Read a high ED50 as a need for a large dose.

Holding throughout (type): in vivo
One experiment deals with Mature female rats. Kind of experiment: Endocrine profile (thymus, adrenal, body weight, food consumption) after oral medication for 2 weeks. Conditions: compared with the controls. The procedure:
The test procedures used to determine the biological activities of the compounds of the invention were carried out as follows: • Endocrine Profile: Mature female rats with an average body weight of 202 g and a body weight range of 15 g or less were medicated orally with test compound for 2 weeks. The test compound was prepared as a solution or suspension in 1% gum tragacanth or 0.75% methyl cellulose. On the day following the last medication, the rats were killed and the thymus and adrenal of each rat were removed, cleaned, and weighed. Body weights and food consumptions were also recorded.

For experiment [1], the system named is Mature male rats, bilaterally adrenalectomized. Put plainly: Glycogenic activity (liver glycogen deposition test). Conditions: for liver glycogen deposition: adrenalectomized male rats, vehicle 1.75 + 0.04 mg/g. From the text: Glycogenic Activity: Mature male rats were bilaterally adrenalectomized 5 days prior to the test. These rats were medicated orally with the test compound for 5 days. Seven hours after the last medication, the rats (which have been fasted overnight) were anesthetized with sodium pentobarbital and a portion of one lobe of the liver was removed and frozen on dry ice for subsequent glycogen determination.

The next experiment deals with Male rats. Kind of experiment: Anti-inflammatory activity (a-tocopherol pouch test). The procedure:
Male rats which weighed 120 g were selected for testing. A rapid subcutaneous injection of 25 mL of air was made between the scapulae of each rat. […] The test compound was administered in daily oral doses for 7 days beginning on the day of pouch formation. The compound to be tested was suspended in 1% gum tragacanth. Twenty-four hours after the last medication, the pouches were dissected free, and the fluid volume was measured.

With `CC(=O)C1CC=C2C(CCC3=Cc4c(cnn4-c4ccc(F)cc4)CC32C)C1C(C)=O` (single isomer, unassigned) [Compound I (R = CH3), 1,1'-[8-(4-Fluorophenyl)-2,3,4,4a,5,6,11,11a-octahydro-11a-methyl-8H-phenanthro[2,3-c]pyrazole-3,4-diyl]bis[ethanone]], in the experiment with Mature female rats (5 mg/kg), the “reduction in adrenal weight” value was 40%, the “reduction in body weight gain” value is 80% and the “reduction in weight of the thymus” value is given as 59%. In addition, the liver glycogen deposition in experiment [1] (9 mg/kg/day x 5, oral) is 9.42 + 0.65 mg/g of tissue. Further, the liver glycogen deposition in experiment [1] (27 mg/kg/day x 5, oral) is 25.48 + 3.39 mg/g of tissue. Moreover, the “oral glucocorticoid activity by the liver glycogen deposition test” value in experiment [1] (rats, oral, result in words) is “oral glucocorticoid activity”. In the experiment on Male rats (Rattus norvegicus, 168 h, daily oral doses for 7 days, male rats, inhibition of liquid exudate), this molecule yielded an ED50 of 23 mg/kg. The “anti-inflammatory activity by the a-tocopherol pouch test” value in the experiment on Male rats (rats, result in words) is listed as “anti-inflammatory activity”.
With `CCOC(=O)C1(C(=O)OCC)CCC=C2C1CCC1=Cc3c(cnn3-c3ccc(F)cc3)CC12C` (stereo not drawn) [Compound II (R = CH2CH3), Diethyl 8-(4-fluorophenyl)-2,3,4,4a,5,6,11,11a-octahydro-11a-methyl-8H-phenanthro[2,3-c]pyrazole-4,4-dicarboxylate], in the experiment with Mature female rats (100 mg/kg), the “reduction in adrenal weight” value is given as 47%, the “reduction in body weight gain” value was determined as 186% and the “reduction in thymus weight” value turned out to be 80%. Moreover, the “activity in the a-tocopherol pouch test” value in the experiment with Male rats (100 mg/kg, daily oral doses for 7 days, male rats) is “inactive”.
